Values of other authors in patent US11339174B2, “γ-spiroketal-γ-lactones and pharmaceutical composition containing same and process for preparation thereof” (Council of Scientific and Industrial Research, priority 2017, dated 2022).
Converted amounts (≈) assume the structure as drawn.

Columns and labels:
HL-60 = conditions: anticancer

massarinoline A
activity against Bacillus subtilis (Bacillus subtilis): active
activity against Staphylococcus aureus (Staphylococcus aureus): active

C[C@H]1O[C@@H]2C[C@]3(C=CC(=O)O3)O[C@@H]2[C@H]1O [pyrenolide D]
IC50 against HL-60 (HL-60): 4 µg/mL (≈ 18.9 µM)
